Literature values as cited in patent US20250041461A1, “[177LU] LUTETIUM-PSMA I&T COMPOSITION AND DOSIMETRY, KIT, METHOD OF MAKING, AND METHOD OF USING THEREOF” (Curium US LLC, priority 2023, published 2025).
Where two headings read alike, the source gives them in different places.

Legend:
[1] = cited from earlier work
[2] = test system: prostate cancer; conditions: in vivo; cited from earlier work
[3] = cited from earlier work; for Absorbed Dose, Mean: Pluvicto; for dose estimate, Mean: Pluvicto Spc

In the case of `O=C([O-])CN1CCN(CC(=O)[O-])CCN(CC(=O)NCC2CCC(C(=O)N[C@@H](Cc3ccc4ccccc4c3)C(=O)NCCCC[C@H](NC(=O)N[C@@H](CCC(=O)O)C(=O)O)C(=O)O)CC2)CCN(CC(=O)[O-])CC1.[177Lu+3]` (some centres unmarked) [^177Lu-PSMA-617], the “mean renal absorbed dose” value ([1]; VISION trial, 29 patients) is listed as 0.43±0.16 Gy/GBq, the “mean renal absorbed dose” value ([1]; Violet et al.) is listed as 0.39±0.16 Gy/GBq and the “projected cumulative absorbed dose to the kidneys at 6 cycles” value ([1]; Vision trial) is listed as 19±7.3 Gy. The renal toxicities ([1]; Vision trial) was “no renal toxicities were observed”, the adverse effects [2] was “mainly transient adverse effects” and the “Absorbed Dose, Mean” value ([3]; Bladder) was 0.32 Gy/GBq. For the same molecule, the “dose estimate, Mean” value ([3]; Heart Wall) was 0.17 Gy/GBq, the “Absorbed Dose, Mean” value ([3]; Heart) was 0.17 Gy/GBq and the “dose estimate, Mean” value ([3]; Kidneys) was 0.43 Gy/GBq. The “Absorbed Dose, Mean” value ([3]; Kidneys) was 0.43 Gy/GBq, the “Absorbed Dose, Mean” value ([3]; Lacrimal Glands) was 2.1 Gy/GBq and the “dose estimate, Mean” value ([3]; Lacrimal gland) was 2.1 Gy/GBq. The “Absorbed Dose, Mean” value ([3]; Left Colon) was 0.58 Gy/GBq, the “dose estimate, Mean” value ([3]; Left colon) was 0.58 Gy/GBq and the “dose estimate, Mean” value ([3]; Liver) was 0.09 Gy/GBq. The “Absorbed Dose, Mean” value ([3]; Liver) was 0.090 Gy/GBq, the “dose estimate, Mean” value ([3]; Rectum) was 0.56 Gy/GBq and the “Absorbed Dose, Mean” value ([3]; Right Colon) was 0.32 Gy/GBq. The “dose estimate, Mean” value ([3]; Right colon) was 0.32 Gy/GBq, the “Absorbed Dose, Mean” value ([3]; Salivary Glands) was 0.63 Gy/GBq and the “dose estimate, Mean” value ([3]; Salivary glands) was 0.63 Gy/GBq. The “dose estimate, Mean” value ([3]; Spleen) was 0.07 Gy/GBq, the “Absorbed Dose, Mean” value ([3]; Spleen) was 0.067 Gy/GBq and the “dose estimate, Mean” value ([3]; Thyroid) was 0.26 Gy/GBq. The “Absorbed Dose, Mean” value ([3]; Thyroid) was 0.26 Gy/GBq and the “dose estimate, Mean” value ([3]; Urinary bladder wall) was 0.32 Gy/GBq.
